Assay results: US6596474B1, “Prevention and treatment of amyloid-associated disorders” (Scios Inc., priority 1999, dated 2003)

Key:
[1] = test system: microglia; assay: cAMP pathway agents as co-activators with Aβ of microglia; format: cell-based
Source text: Two of the four PGE2 isoforms, EP2 and EP4, are coupled to Gs and elevate cAMP levels upon activation. EP3 is coupled to Gi and inhibits cAMP production while EP1 increased Ca^++i. As a first step in distinguishing the receptor isoform mediating the PGE2 signal, the second messenger in the Aβ coactivation pathway was identified.

[2] = target: T1, EP1 (Homo sapiens, UniProt P34995); assay: [3H]-PGE2 binding to EP1; conditions: read-out: Ki for inhibition of [3H]-PGE2 binding to EP1
T1 sequence (P34995 1-402): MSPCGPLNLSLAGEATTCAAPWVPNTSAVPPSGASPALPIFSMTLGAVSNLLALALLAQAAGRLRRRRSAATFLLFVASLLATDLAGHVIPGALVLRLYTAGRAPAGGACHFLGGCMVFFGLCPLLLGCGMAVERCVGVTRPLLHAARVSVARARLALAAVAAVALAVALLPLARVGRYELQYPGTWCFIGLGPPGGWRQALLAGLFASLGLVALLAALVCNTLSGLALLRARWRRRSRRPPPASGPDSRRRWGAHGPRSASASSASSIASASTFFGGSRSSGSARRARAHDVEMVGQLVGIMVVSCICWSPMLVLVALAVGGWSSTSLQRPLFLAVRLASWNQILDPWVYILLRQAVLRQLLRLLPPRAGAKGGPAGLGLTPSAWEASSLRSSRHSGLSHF
Source text: (§2) An EP1/2 selective antagonist AH6809 (Woodward et al., 1995) was used to block the activity of EP2.

[3] = target: EP2 (Homo sapiens, UniProt P43116); assay: PGE2 stimulated cAMP accumulation functional assay; format: cell-based; conditions: read-out: EC50 for inhibition of PGE2 induced cAMP generation
EP2, sequence (P43116 whole entry): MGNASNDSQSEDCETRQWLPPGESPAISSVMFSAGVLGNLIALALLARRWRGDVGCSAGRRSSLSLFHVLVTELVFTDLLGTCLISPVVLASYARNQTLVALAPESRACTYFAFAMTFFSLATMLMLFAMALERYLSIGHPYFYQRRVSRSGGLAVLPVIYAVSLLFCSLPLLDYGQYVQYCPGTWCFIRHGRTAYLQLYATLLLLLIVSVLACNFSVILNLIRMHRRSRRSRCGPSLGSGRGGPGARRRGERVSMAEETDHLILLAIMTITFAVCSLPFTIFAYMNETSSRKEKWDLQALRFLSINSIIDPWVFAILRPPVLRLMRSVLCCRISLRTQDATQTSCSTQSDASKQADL
Source text: as §2

[4] = test system: primary glia; assay: Aβ:PGE2 activation of primary glia in presence of EP2 antagonist; format: cell-based; conditions: even at 10-fold higher concentration than the Kd; FIG. 7
[5] = test system: BV-2 microglia; assay: Aβ stimulation of BV-2 cells in presence of antagonist or antisense; format: cell-based, murine
Source text: In addition, the EP2 antagonist AH6809 had no effect on Aβ stimulation of BV-2 cells (FIG. 7). Aβ treatment of BV-2 microglia has two striking morphological effects. First, cells clumped in a manner consistent with the well documented microglial chemotactic activity to Aβ. Second, the morphology of individual cells is altered such that they change from a spherical to an elongated, process bearing shape.
Since selective EP4 antagonists were unavailable, an antisense approach is used to probe involvement of EP4 in Aβ:PGE2 activation of microglia. The antisense oligonucleotides are first tested for their ability to inhibit EP4 expression by measuring their effect on PGE2 stimulation of cAMP accumulation, an EP2/EP4 mediated event. Once the activity of the antisense oligonucleotide is confirmed, the effect of the oligonucleotide on Aβ:PGE2 activation is tested in BV-2 microglial cells.
Next, BV-2 cells are pretreated with the antisense oligonucleotides for 48 hours and then, in the continued presence of the oligonucleotide, the pretreated cells are exposed to Aβ. […] The EP4 construct decreases IL-1β by 50%, a substantial effect for this method of inhibition (FIG. 8).

[6] = target: EP4 (Homo sapiens, UniProt P35408); assay: [3H]-PGE2 binding to EP4
EP4, sequence (P35408 whole entry): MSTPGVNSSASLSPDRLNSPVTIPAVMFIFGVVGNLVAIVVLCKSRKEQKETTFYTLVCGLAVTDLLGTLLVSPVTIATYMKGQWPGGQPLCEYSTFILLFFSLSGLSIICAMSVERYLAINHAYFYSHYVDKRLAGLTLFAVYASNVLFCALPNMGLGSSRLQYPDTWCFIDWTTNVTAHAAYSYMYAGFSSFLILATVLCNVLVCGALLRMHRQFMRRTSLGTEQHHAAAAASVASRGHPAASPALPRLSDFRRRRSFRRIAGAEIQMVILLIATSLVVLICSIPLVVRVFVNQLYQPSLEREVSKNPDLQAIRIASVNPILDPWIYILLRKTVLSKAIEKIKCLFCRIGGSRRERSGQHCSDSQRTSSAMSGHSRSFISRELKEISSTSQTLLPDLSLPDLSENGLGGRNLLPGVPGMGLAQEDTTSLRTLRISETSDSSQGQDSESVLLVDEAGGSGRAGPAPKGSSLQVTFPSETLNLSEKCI
Source text: as §2

[7] = test system: primary cortical mixed glial cultures; assay: Aβ:PGE2 synergy in primary cortical mixed glial cultures, cytokine levels; format: cell-based, mice; conditions: agent alone; 100 pg/ml PGE2 or 11 hour aged Aβ; 48 hours; indomethacin pretreated
Procedure: (§1) As co-culture with astrocytes is known to promote the resting state for cultured microglia, mixed primary glial cultures are a particularly suitable system in which to examine PGE2:Aβ synergy. Briefly, cortices from P3 wild type mice were dissected in Ca^2+ and Mg^2+ free HBSS (Gibco). Meninges were carefully dissected away, and the tissue transferred to a dish containing HBSS supplemented with 0.53 mM EDTA and 0.05% trypsin. The tissue was incubated for 18 minutes at room temperature with occasional gentle agitation. Trypsin was removed and the tissue washed with HBSS twice prior to titration in growth medium consisting of high glucose DMEM supplemented with 10% fetal bovine serum (FBS), 110 mg/L sodium pyruvate, and 5 units/ml penicillin/streptomycin. The cell suspension was plated at 9 cortices in growth medium into one T75 and one T25 flask. The next day, nonadherent cells were removed. The culture was refed with growth medium at this time and once every 3 days following. When the culture appeared quite confluent, approximately one week, it was trypsinized and split into 48 well plates at 10^5 cells/well. Experiments were initiated in several days when cells again reached confluence.
The effect of Aβ in the presence and absence of exogenous PGE2 was investigated in these primary cortical mixed glial cultures. An Aβ peptide was resuspended at 4 mg/ml in 50% HFIP, incubated overnight at 37° C., dried in a Speed Vac, and resuspended in water at 4 mg/ml. The peptide was then “aged” at 37° C. for 11 or 24 hours and sonicated for 30 seconds on ice prior to use.
100 pg/ml of PGE2 is a low dose that is not expected to stimulate receptors for thromboxane or other prostenoids and is likely to be physiologically relevant. […] Treatments were made in duplicate. After 48 hours, media and lysates were harvested and assayed.
We confirmed the cellular source of the if biochemical signal by immunocytochemistry with an anti-mouse IL-1α monoclonal antibody (R&D Systems).

[8] = test system: mouse microglial cell line MMGT-16; assay: Aβ:PGE2 synergy in MMGT-16 cells, cytokine secretion; format: cell-based; conditions: agent alone
Source text: The protocol described above in Example 2 was then used to examine the synergy between PGE2 and Aβ in the mouse microglial cell line MMGT-16.
Synergy in MMGT-16 cells was examined by measuring secretion of both TNF-α (FIG. 5) and IL-1β (FIG. 4).

[9] = test system: BV-2 murine microglial cells; assay: Aβ activation of BV-2 cells (IL-1α); format: cell-based; conditions: exogenous PGE2 co-incubation
Procedure: BV-2 murine microglial cells display many phenotypic properties of primary microglia (Blasi et al., 1990; Bocchini et al., 1992), including responsiveness to Aβ (Murphy et al., 1998). BV-2 cells are quasi-activated under basal culture conditions and secrete significant quantities of PGE2, and Aβ treatment alone induces IL-1α in BV-2 cells. […] This was believed to result from co-activation by endogenous PGE2.
The PGE2 concentration in the 24 hour conditioned media from a BV-2 cell culture was a typically 500-800 pg/ml, well above that used for Aβ:PGE2 stimulation. […] Aβ activation of BV-2 cells is highly reproducible, having been observed in 90% of experiments with a mean stimulation of 3.2 fold (n=21; p<0.05 vs. media control).

[10] = test system: primary mixed murine glial cultures; assay: PGE2 in medium conditioned by primary mixed murine glial cultures; format: cell-based; conditions: 14 μM indomethacin during 48 hour conditioning; basal just under 200 pg/ml
Procedure: as §1
This is within the range in which would allow PGE2:Aβ synergy to be observed.

## Nc1ncnc2c1nc(Br)n2[C@@H]1O[C@@H]2COP(=O)(O)O[C@H]2[C@H]1O [8-Br-cAMP]
[1]
  substitution for PGE2 as co-activator with Aβ: ability to substitute for PGE2 as a coactivator with Aβ

## CC(C)Oc1ccc2c(=O)c3cc(C(=O)O)ccc3oc2c1 [AH6809]
[2]
  Ki: 1 µM
[3]
  EC50: 1 µM
[4]
  effect on Aβ:PGE2 activation of primary glia: no effect
[5]; BV-2 microglia
  effect on morphological responses to Aβ (clumping, elongated process bearing shape): no effect on either response
[5]; FIG. 7
  effect on Aβ stimulation of BV-2 cells: no effect
[6]
  inhibition of [3H]-PGE2 binding to EP4: lack of AH6809 inhibition

## CCCCC[C@H](O)/C=C/[C@H]1[C@H](O)CC(=O)[C@@H]1C/C=C\CCCC(=O)O [PGE2, Prostaglandin E2]
[7]
  intracellular IL-1α: Neither PGE2 nor 11 hour aged Aβ alone had an effect
  secreted IL-1α: Neither PGE2 nor 11 hour aged Aβ alone had an effect
  secreted IL-6: Neither PGE2 nor 11 hour aged Aβ alone had an effect
[8]
  TNF-α secretion: no discernable effect
  secretion of IL-1β: unaffected
[9]
  enhancement of Aβ-induced IL-1α elevation: not further enhanced

## COc1ccc2c(c1)c(CC(=O)O)c(C)n2C(=O)c1ccc(Cl)cc1 [indomethacin]
[10]
  PGE2 secretion: about 30 pg/ml

## COc1ccc(C2CNC(=O)C2)cc1OC1CCCC1 (stereo not drawn) [rolipram]
[1]
  effect on Aβ:PGE2 stimulation of microglial cytokine production: enhance
